Each structure is given as a SMILES string. Where a name gives a salt, the structure may show the parent alone.

One assay relates to KMS.12.BM cells. In words: KMS.12.BM Cell Viability Assay (Example B1). The format is cell-based, human. The settings on record: Homo sapiens, 72 h, 3 days, Cell Titer-GLO, read-out: KMS cellular IC50. The method, then: KMS.12.BM cell line (human myeloma) was purchased from JCRB (Osaka, Japan) and maintained in RPMI with 10% FBS culture medium. To measure the cytotoxic activity of the compounds through ATP quantitation, the KMS.12.BM cells are plated in the RPMI culture medium at 5000 cells/well/per 100 μL into a 96-well polystyrene clear black tissue culture plate (Greiner-bio-one through VWR, NJ), in the presence or absence of a concentration range of test compounds. After 3 days, […] Cell Titer-GLO Luminescent (Promega, Madison, Wis.) cell culture agent is added to each well for 10 min. at room temperature to stabilize the luminescent signal. This determines the number of viable cells in culture based on quantitation of the ATP present, which signals the presence of metabolically active cells.
A general note: ATP-based viability assays read luminescence as a measure of living cells.
For `CC(=O)NCc1ncccc1C1COc2c(-c3c(C)noc3C)ccc3[nH]c(=O)n1c23` (stereo not shown) [Example 131, N-({3-[7-(3,5-Dimethylisoxazol-4-yl)-2-oxo-1,2,4,5-tetrahydroimidazo[1,5,4-de][1,4]benzoxazin-4-yl]pyridin-2-yl}methyl)acetamide], the IC50 is less than 1000 nM.

Take `Cc1noc(C)c1-c1cc(CNC(=O)CN(C)C)c2[nH]c(=O)n3c2c1OC[C@@H]3c1ccccn1` [Example 143, 2-(Dimethylamino)-N-{[(4S)-7-(3,5-dimethylisoxazol-4-yl)-2-oxo-4-pyridin-2-yl-1,2,4,5-tetrahydroimidazo[1,5,4-de][1,4]benzoxazin-9-yl]methyl}acetamide]: the IC50 was less than 1000 nM.

With `Cc1noc(C)c1-c1ccc2nc(N3CC[C@@H](C(=O)NC(C)C)C3)n3c2c1OC[C@@H]3c1ccccn1` [Example 145, (3R)-1-[(4S)-7-(3,5-Dimethylisoxazol-4-yl)-4-pyridin-2-yl-4,5-dihydroimidazo[1,5,4-de][1,4]benzoxazin-2-yl]-N-isopropylpyrrolidine-3-carboxamide], the 50% inhibitory concentration (IC50) is less than 1000 nM.

Take `Cc1noc(C)c1-c1ccc2nc(N3CCCN(S(N)(=O)=O)CC3)n3c2c1OC[C@@H]3c1ccccn1` [Example 147, 4-[(4S)-7-(3,5-Dimethylisoxazol-4-yl)-4-pyridin-2-yl-4,5-dihydroimidazo[1,5,4-de][1,4]benzoxazin-2-yl]-1,4-diazepane-1-sulfonamide]: the concentration for half-maximal inhibition (IC50) was less than 1000 nM.

Regarding `CC(=O)N1CCCN(c2nc3ccc(-c4c(C)noc4C)c4c3n2[C@@H](c2ccccn2)CO4)CC1` [Example 148, (4S)-2-(4-Acetyl-1,4-diazepan-1-yl)-7-(3,5-dimethylisoxazol-4-yl)-4-pyridin-2-yl-4,5-dihydroimidazo[1,5,4-de][1,4]benzoxazine], the IC50 is less than 1000 nM.

In the case of `Cc1noc(C)c1-c1ccc2nc(N3CCCN(S(C)(=O)=O)CC3)n3c2c1OC[C@@H]3c1ccccn1` [Example 149, (4S)-7-(3,5-Dimethylisoxazol-4-yl)-2-[4-(methylsulfonyl)-1,4-diazepan-1-yl]-4-pyridin-2-yl-4,5-dihydroimidazo[1,5,4-de][1,4]benzoxazine], the concentration for half-maximal inhibition (IC50) was less than 1000 nM.

Regarding `Cc1noc(C)c1-c1ccc2nc(N3CCNCC3)n3c2c1OC[C@@H]3c1ccccn1` [Example 150, (4S)-7-(3,5-Dimethylisoxazol-4-yl)-2-piperazin-1-yl-4-pyridin-2-yl-4,5-dihydroimidazo[1,5,4-de][1,4]benzoxazine trihydrochloride], the IC50 is less than 1000 nM.

As for `Cc1noc(C)c1-c1ccc2nc(N3CCN(CC(=O)N(C)C)CC3)n3c2c1OC[C@@H]3c1ccccn1` [Example 151, 2-{4-[(4S)-7-(3,5-Dimethylisoxazol-4-yl)-4-pyridin-2-yl-4,5-dihydroimidazo[1,5,4-de][1,4]benzoxazin-2-yl]piperazin-1-yl}-N,N-dimethylacetamide], the IC50 is less than 1000 nM.

As for `Cc1noc(C)c1-c1ccc2nc(N3CC[C@@H](N(C)C(=O)CC#N)C3)n3c2c1OC[C@@H]3c1ccccn1` [Example 152, 2-Cyano-N-{(3R)-1-[(4S)-7-(3,5-dimethylisoxazol-4-yl)-4-pyridin-2-yl-4,5-dihydroimidazo[1,5,4-de][1,4]benzoxazin-2-yl]pyrrolidin-3-yl}-N-methylacetamide], the IC50 is less than 1000 nM.

As to `Cc1noc(C)c1-c1ccc2nc(N3CC[C@@H](NC(=O)N4CCOCC4)C3)n3c2c1OC[C@@H]3c1ccccn1` [Example 153, N-{(3R)-1-[(4S)-7-(3,5-Dimethylisoxazol-4-yl)-4-pyridin-2-yl-4,5-dihydroimidazo[1,5,4-de][1,4]benzoxazin-2-yl]pyrrolidin-3-yl}morpholine-4-carboxamide], the IC50 was less than 1000 nM.

Take `Cc1noc(C)c1-c1ccc2nc(C)n3c2c1OC[C@@H]3c1ccccn1` [Example 154, 7-(3,5-Dimethylisoxazol-4-yl)-2-methyl-4-pyridin-2-yl-4,5-dihydroimidazo[1,5,4-de][1,4]benzoxazine]: the IC50 was less than 1000 nM.

With `COC(=O)N[C@@H]1CCN(c2nc3ccc(-c4c(C)noc4C)c4c3n2[C@@H](c2ccccn2)CO4)C1` [Example 155, Methyl {(3R)-1-[(4S)-7-(3,5-dimethylisoxazol-4-yl)-4-pyridin-2-yl-4,5-dihydroimidazo[1,5,4-de][1,4]benzoxazin-2-yl]pyrrolidin-3-yl}carbamate], the concentration for half-maximal inhibition (IC50) is less than 1000 nM.

As for `Cc1noc(C)c1-c1cc(F)c2nc(N(C)C)n3c2c1OCC3c1cccnc1` (stereo not shown) [Example 156, 7-(3,5-Dimethylisoxazol-4-yl)-9-fluoro-N,N-dimethyl-4-pyridin-3-yl-4,5-dihydroimidazo[1,5,4-de][1,4]benzoxazin-2-amine], the IC50 was less than 1000 nM.

For the compound `Cc1noc(C)c1-c1cc(F)c2nc(N3CCC(O)C3)n3c2c1OCC3c1cccnc1` (stereo not shown) [Example 157, 1-[7-(3,5-Dimethylisoxazol-4-yl)-9-fluoro-4-pyridin-3-yl-4,5-dihydroimidazo[1,5,4-de][1,4]benzoxazin-2-yl]pyrrolidin-3-ol], the 50% inhibitory concentration (IC50) was less than 1000 nM.

Consider `CCNc1nc2c(F)cc(-c3c(C)noc3C)c3c2n1C(c1cccnc1)CO3` (stereo not shown) [Example 158, 7-(3,5-Dimethylisoxazol-4-yl)-N-ethyl-9-fluoro-4-pyridin-3-yl-4,5-dihydroimidazo[1,5,4-de][1,4]benzoxazin-2-amine], for which the IC50 is less than 1000 nM.

With `Cc1noc(C)c1-c1ccc2nc(N3CCOCC3)n3c2c1OC[C@@H]3c1ccccn1` [Example 161, (4S)-7-(3,5-dimethylisoxazol-4-yl)-2-morpholin-4-yl-4-pyridin-2-yl-4,5-dihydroimidazo[1,5,4-de][1,4]benzoxazine], the IC50 was less than 1000 nM.

Take `Cc1noc(C)c1-c1ccc2nc(N3CCCC3)n3c2c1OC[C@@H]3c1ccccn1` [Example 162, (4S)-7-(3,5-dimethylisoxazol-4-yl)-4-pyridin-2-yl-2-pyrrolidin-1-yl-4,5-dihydroimidazo[1,5,4-de][1,4]benzoxazine]: the IC50 is less than 1000 nM.

Take `Cc1noc(C)c1-c1ccc2nc(N3CCN(C)CC3)n3c2c1OC[C@@H]3c1ccccn1` [Example 163, (4S)-7-(3,5-dimethylisoxazol-4-yl)-2-(4-methylpiperazin-1-yl)-4-pyridin-2-yl-4,5-dihydroimidazo[1,5,4-de][1,4]benzoxazine]: the concentration for half-maximal inhibition (IC50) was less than 1000 nM.

`Cc1noc(C)c1-c1ccc2nc(N3CCC3)n3c2c1OC[C@@H]3c1ccccn1` [Example 164, (4S)-2-azetidin-1-yl-7-(3,5-dimethylisoxazol-4-yl)-4-pyridin-2-yl-4,5-dihydroimidazo[1,5,4-de][1,4]benzoxazine]: the half-inhibitory concentration (IC50) is less than 1000 nM.

For the compound `Cc1noc(C)c1-c1ccc2nc(N3CC(O)C3)n3c2c1OC[C@@H]3c1ccccn1` [Example 165, 1-[(4S)-7-(3,5-dimethylisoxazol-4-yl)-4-pyridin-2-yl-4,5-dihydroimidazo[1,5,4-de][1,4]benzoxazin-2-yl]azetidin-3-ol], the IC50 is less than 1000 nM.

Turning to `Cc1noc(C)c1-c1ccc2nc(N3CCN(C)C(=O)C3)n3c2c1OC[C@@H]3c1ccccn1` [Example 166, 4-[(4S)-7-(3,5-dimethylisoxazol-4-yl)-4-pyridin-2-yl-4,5-dihydroimidazo[1,5,4-de][1,4]benzoxazin-2-yl]-1-methylpiperazin-2-one], the half-maximal inhibitory concentration (IC50) was less than 1000 nM.

Turning to `CCOC(=O)N1CCN(c2nc3ccc(-c4c(C)noc4C)c4c3n2[C@@H](c2ccccn2)CO4)CC1` [Example 167, ethyl 4-[(4S)-7-(3,5-dimethylisoxazol-4-yl)-4-pyridin-2-yl-4,5-dihydroimidazo[1,5,4-de][1,4]benzoxazin-2-yl]piperazine-1-carboxylate], the concentration for half-maximal inhibition (IC50) is less than 1000 nM.

`Cc1noc(C)c1-c1ccc2nc(N3CCC(O)CC3)n3c2c1OC[C@@H]3c1ccccn1` [Example 169, 1-[(4S)-7-(3,5-dimethylisoxazol-4-yl)-4-pyridin-2-yl-4,5-dihydroimidazo[1,5,4-de][1,4]benzoxazin-2-yl]piperidin-4-ol]: the concentration for half-maximal inhibition (IC50) is less than 1000 nM.

Turning to `Cc1noc(C)c1-c1ccc2nc(N3CCC[C@@H](O)C3)n3c2c1OC[C@@H]3c1ccccn1` [Example 170A, (3R)-1-[(4S)-7-(3,5-dimethylisoxazol-4-yl)-4-pyridin-2-yl-4,5-dihydroimidazo[1,5,4-de][1,4]benzoxazin-2-yl]piperidin-3-ol], the concentration for half-maximal inhibition (IC50) was less than 1000 nM.

Regarding `Cc1noc(C)c1-c1ccc2nc(N3CCC[C@H](O)C3)n3c2c1OC[C@@H]3c1ccccn1` [Example 170B, (3S)-1-[(4S)-7-(3,5-dimethylisoxazol-4-yl)-4-pyridin-2-yl-4,5-dihydroimidazo[1,5,4-de][1,4]benzoxazin-2-yl]piperidin-3-ol], the IC50 was less than 1000 nM.

Regarding `Cc1noc(C)c1-c1ccc2nc(N3CCC(N(C)C)CC3)n3c2c1OC[C@@H]3c1ccccn1` [Example 171, 1-[(4S)-7-(3,5-dimethylisoxazol-4-yl)-4-pyridin-2-yl-4,5-dihydroimidazo[1,5,4-de][1,4]benzoxazin-2-yl]-N,N-dimethylpiperidin-4-amine], the IC50 is less than 1000 nM.

Turning to `Cc1noc(C)c1-c1ccc2nc(N3CCNC(=O)C3)n3c2c1OC[C@@H]3c1ccccn1` [Example 172, 4-[(4S)-7-(3,5-dimethylisoxazol-4-yl)-4-pyridin-2-yl-4,5-dihydroimidazo[1,5,4-de][1,4]benzoxazin-2-yl]piperazin-2-one], the IC50 is less than 1000 nM.

The same assay, now with this note: Homo sapiens, KMS-12-BM, 72 h, 3 days, Cell Titer-GLO, read-out: KMS cellular IC50.
As for `Cc1noc(C)c1-c1ccc2[nH]c(=O)n3c2c1OCC3c1cccnc1C(=O)N(C)C` (stereo not shown) [Example 129, 3-[7-(3,5-Dimethylisoxazol-4-yl)-2-oxo-1,2,4,5-tetrahydroimidazo[1,5,4-de][1,4]benzoxazin-4-yl]-N,N-dimethylpyridine-2-carboxamide], the 50% inhibitory concentration (IC50) was less than 1000 nM.

In general, IC50 refers to the concentration at which inhibition is half-maximal.

The values are drawn from patent US10464947B2 (Incyte Corporation, priority 2013, dated 2019).
